This note sets out measurements from patent US20110166063A1 (priority 2008, published 2011).

The term Vss denotes a proportionality between amount in the body and measured concentration, not a real space. By Tmax is commonly meant the time from dosing to the highest level. The term Ki denotes a dissociation constant, usually derived from enzyme kinetics or from competition with a known ligand. The term EC50 denotes the concentration giving half of the maximal effect. As a reminder, the AUC(0-inf) is total exposure, with the tail of the curve extrapolated. As usually defined, the Cmax is the maximum level reached in the sampled fluid or tissue. The MRT last is a mean duration of stay, worked out from the concentration-time curve. As usually defined, the half-life is the time in which the quantity being followed falls by half. Usually clearance stands for the rate of elimination divided by the concentration.

Several values for one entry are separate records, joined by “and”; a condition that tells them apart may be missing. Equal entries are not always repeated. Where two headings read alike, the source gives them in different places. Marks after values point to notes of the source that are not given here. Ends that are not written are not given here.

In one data set the test system is rat red blood cells. As to the kind of experiment: Hemolysis assay, protegrin-1 series. The format is cell-based. Conditions: for hemolytic effect: rat red blood cells, 37° C., relative to 0.25% Triton X-100.
A short description of data set [1]: Pharmacokinetic study of protegrin conjugates, single IV dose in rats. The class given is in vivo, Sprague-Dawley rats. On the procedure: The weight range of the animals was 313-346 grams. All animals were food fasted overnight.
Following the last collection point, the animals were euthanized. Bioanalytical analysis: analysis of the plasma samples was conducted using non-validated LC-MS/MS methods.

Data set [2] addresses T1, GPR54 G-Protein coupled receptor (Homo sapiens, UniProt Q969F8).
T1 construct: host or cells: Chem-1 host cells
Kind of data set: FLIPR calcium flux agonist assay on GPR54. The class given is cell-based. The note with it: no release incubation; for EC50 (nM) / EC50: agonist activation at GPR54. (A change in cytosolic calcium serves as a functional read-out for many receptors and channels.)

Data set [3] is classed as physicochemical. The note with it: purification from the reaction mixture, even at acidic pH values.
A further data set addresses human μ opioid receptor (Homo sapiens, UniProt P35372). Kind of data set: Radioligand competition binding assay, biphalin series, μ opioid receptor. On the procedure:
Competition binding experiments were conducted by incubating membrane protein to equilibrium in triplicate in the presence of a fixed concentration of radioligand and increasing concentrations (0.1 nM to 10 μM) of test compound in 100 μL final volume. The radioligands used were specific for each receptor type, and the assay conditions are described in Table BIP6.3. Following incubations, the membranes were rapidly filtered through GF/B filter plate (presoaked with 0.5% polyethyleneimine), washed four times with cold 50 mM Tris-HCl, pH 7.5, and the bound radioactivity was then measured. Non-specific binding was measured in the presence of excess naloxone (100 μM); this value was subtracted from the total binding to yield the specific binding at each test concentration.
The test compounds were stored under acidic condition to stabilize the PEG conjugation.
Ki (affinity of test compound) was obtained using the Cheng Prusoff correction using experimental Kd (affinity of radioligand) values that were previously determined under these assay conditions.

A further data set deals with db/db diabetic mice. Kind of data set: Blood glucose levels in db/db diabetic mice after i.p. injection. The class given is in vivo. As for the experimental part:
At different time points after dosing blood glucose levels were measured.
PBS saline solution and Dextran equivalent dose were administrated as negative controls.

Where [4] appears, read: test compound in plasma (non-releasable conjugates, native PG-1), […] equivalent protein mass IV, Mean ± SD.
Setting [5] is: protegrin-1 in plasma (released or native), […] equivalent protein mass IV.
Where [6] appears, read: Pre-incubated in assay buffer pH 7.5 at 37° C. (72 h biphalin and di-CAC; 20 h di-C2 and di-SBC).
[7] abbreviates: sample diluted on the day of the assay (unreleased).
[8] abbreviates: rat, in vivo, protegrin-1 in plasma (released or native), 1.6 mg/kg equivalent protein mass IV.

T1 sequence (Q969F8 whole entry): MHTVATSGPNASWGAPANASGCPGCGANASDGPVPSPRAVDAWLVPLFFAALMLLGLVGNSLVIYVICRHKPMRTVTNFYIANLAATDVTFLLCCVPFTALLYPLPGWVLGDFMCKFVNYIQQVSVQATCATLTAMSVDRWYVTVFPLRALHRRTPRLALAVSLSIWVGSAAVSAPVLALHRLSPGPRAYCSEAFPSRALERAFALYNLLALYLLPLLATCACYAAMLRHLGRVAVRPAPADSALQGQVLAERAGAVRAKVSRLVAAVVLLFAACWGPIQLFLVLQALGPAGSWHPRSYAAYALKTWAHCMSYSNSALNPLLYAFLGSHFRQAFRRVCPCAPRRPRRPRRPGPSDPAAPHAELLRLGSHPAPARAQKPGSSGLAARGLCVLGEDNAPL
human μ opioid receptor, sequence (P35372 whole entry): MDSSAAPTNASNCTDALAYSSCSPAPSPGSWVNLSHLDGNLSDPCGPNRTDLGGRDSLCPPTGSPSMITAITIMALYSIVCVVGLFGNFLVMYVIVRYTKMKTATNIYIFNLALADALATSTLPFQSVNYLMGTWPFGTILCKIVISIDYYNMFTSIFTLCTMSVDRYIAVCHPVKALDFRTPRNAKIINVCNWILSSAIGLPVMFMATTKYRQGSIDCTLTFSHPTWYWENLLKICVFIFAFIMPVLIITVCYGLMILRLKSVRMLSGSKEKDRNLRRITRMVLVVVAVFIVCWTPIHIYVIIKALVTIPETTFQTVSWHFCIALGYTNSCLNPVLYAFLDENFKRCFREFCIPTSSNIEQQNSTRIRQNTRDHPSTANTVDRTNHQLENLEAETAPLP
Experimental for rat red blood cells: Approximately 10 mL of blood was drawn from one adult rat into Na Heparin tube and kept in ice until use. Red blood cells were washed three times with 10 mL of cold DPBS ((−) CaCl2 and (−) MgCl2) and collected by sequential centrifugation at 3,000 g for 5 min at 4° C. Pellets of red blood cells were resuspended with DPBS ((−) CaCl2 and (−) MgCl2) and the total volume was brought up to initial volume of blood drawn. One mL of resuspended red blood cells was resuspended with 49 mL of DPBS ((−) CaCl2 and (−) MgCl2). Incubation mixture was prepared by 400 fold dilution of stock solution of test compounds with final volume of 800 μl. Final concentration of test compounds was equimolar to that of respective unconjugated compounds. Hemolysis incubation was done at 37° C. with mild agitation. For releasable conjugates, test compounds were preincubated in 1×PBS at 37° C. prior to hemolysis assay. Incubation mixture was centrifuged at 3,000 g for 5 min at 4° C., and the absorbance at 550 nm was read from supernatant.

On to “dextran-butyraldehyde-40K-protegrin-1 (RGGRLCYCRRRFCVCVGR-NH2; cysteine pairing not given here; also: dextran-butyraldehyde 40K conjugate; UniProt P32194 131-148, looked up) [Dextran-PG1]”, for which, in the data set on rat red blood cells, the hemolytic effect result is “almost eliminated”.
Consider “[Protegrin-1]-[PEG-di-ButyrAldehyde-5K]-[Protegrin-1] (RGGRLCYCRRRFCVCVGR-NH2; cysteine pairing not given here; also: two peptide copies linked by PEG-dibutyraldehyde 5K; UniProt P32194 131-148, looked up) [PG-1-PEG-5K-PG-1]”, for which, in data set [1] (setting [4]), the “CL” value stood at 2.25 ± 0.154 mL/min/kg, the “T1/2” value was found to be 408 ± 39 min and the distribution volume (Vss) was found to be 0.248 ± 0.0221 L/kg. Also, the hemolytic effect result in the data set with rat red blood cells (listed as PG1-ButyrALD-5K-PG1) is recorded as “little hemolytic activity”. Moreover, in the data set on rat red blood cells (listed as PG1-ButyrALD-PG1), the hemolytic effect entry is listed as “almost eliminated”.
Turning to “[mono]-[mPEG-ButyrALD-30K]-[Kisspeptin-13] (LPNYNWNSFGLRF; also: mono-PEGylated with mPEG-ButyrALD 30K, site not given here; UniProt Q15726 109-121, looked up) [Ald30K-KP13]”, in data set [2], the “EC50 (nM)” value is on record as “No activity”.
In the case of “mono-[mPEG2-ButyrAldehyde-40K]-[Kisspeptin-54] (GTSLSPPPESSGSPQQPGLSAPHSRQIPAPQGAVLVQREKDLPNYNWNSFGLRF-NH2; also: mPEG2-ButyrAldehyde 40K conjugate, site not given here; UniProt Q15726 68-121, looked up) [Ald40K-KP54]”, the “EC50 (nM)” value in data set [2] is “No activity”.
Take (SBC-30K)2-biphalin: in data set [3], the “stability of the conjugate” value is recorded as “instability”.
Consider “mono-[mPEG2-CAC-FMOC-40K]-[PG-1] (RGGRLCYCRRRFCVCVGR-NH2; cysteine pairing not given here; also: releasable CAC-PEG2-FMOC 40K PEG, mono-conjugate, site not given here; UniProt P32194 131-148, looked up) [CAC-PEG2-FMOC-40K-PG-1, PG1 conjugate with a releasable linker]”, for which, in data set [1] (setting [5]), the “T1/2 (hr)” value is listed as 0.13* hr and the “Tmax” value was 1.8 min. Also, the “hemolytic effects relative to that from PG1” value in the data set on rat red blood cells (conjugate preincubated for 96 hr in 1XPBS at 37° C.) is reported as 60-70%.
As for “(PG-1)-(ALD)22K-(PG-1) (RGGRLCYCRRRFCVCVGR-NH2; cysteine pairing not given here; also: two peptide copies linked by PEG-dibutyraldehyde 2K; UniProt P32194 131-148, looked up) [PG-1-PEG-2K-PG-1, non-releasable di-peptide conjugate with bi-functional PEG-butyraldehyde-2K]”, in data set [1] (setting [4]), the “CL” value turned out to be 3.48 ± 0.455 mL/min/kg, the “T1/2” value stood at 438 ± 66 min and the volume of distribution (Vss) came out at 0.432 ± 0.0405 L/kg.
For “(CAC-20K)2-biphalin [Di-CAC-PEG2-FMOC-NHS-20K-biphalin]”, the figures for the Ki with human μ opioid receptor (setting [6]) and in the data set with human μ opioid receptor (setting [7]) were 13.7 nM and 1120 nM, respectively.
Consider “[mono]-[4,7-CG-PEG2-FMOC-NHS-40K]-[protegrin-1] (RGGRLCYCRRRFCVCVGR-NH2; cysteine pairing not given here; also: releasable CG-PEG2-FMOC 40K PEG, site not given here; UniProt P32194 131-148, looked up) [CG-PEG2-FMOC-40K-PG-1, releasable PEG conjugate of protegrin-1]”, for which, in data set [1] (setting [5]), the “T1/2 (hr)” value is 1.95* hr and the “Tmax” value amounted to 1.8 min.
As to Insulin, the “Blood glucose level, Mean” value with db/db diabetic mice (Ins 5 ug/mouse, time 0 hr, N = 5) is listed as 510 mg/dL; in the data set with db/db diabetic mice (Ins 5 ug/mouse, time 1 hr, N = 5), 265 mg/dL; in the data set on db/db diabetic mice (Ins 5 ug/mouse, time 2 hr, N = 5), 352 mg/dL; with db/db diabetic mice (Ins 5 ug/mouse, time 4 hr, N = 5), 587 mg/dL; in the data set with db/db diabetic mice (Ins 5 ug/mouse, time 8 hr, N = 5), 538 mg/dL; with db/db diabetic mice (Ins 5 ug/mouse, time 24 hr, N = 5), 538 mg/dL. In addition, the “Blood glucose level, Mean” value in the data set on db/db diabetic mice (Ins 50 ug/mouse, time 0 hr, N = 5) came to 445 mg/dL; in the data set on db/db diabetic mice (Ins 50 ug/mouse, time 1 hr, N = 5) it was 210 mg/dL; with db/db diabetic mice (Ins 50 ug/mouse, time 2 hr, N = 5) it was 150 mg/dL; in the data set on db/db diabetic mice (Ins 50 ug/mouse, time 4 hr, N = 5), 550 mg/dL; with db/db diabetic mice (Ins 50 ug/mouse, time 8 hr, N = 5) it was 558 mg/dL; in the data set with db/db diabetic mice (Ins 50 ug/mouse, time 24 hr, N = 5), 541 mg/dL.
Turning to `CC(C)C[C@H](NC(=O)CNC(=O)[C@H](Cc1ccccc1)NC(=O)[C@H](CO)NC(=O)[C@H](CC(N)=O)NC(=O)[C@H](Cc1c[nH]c2ccccc12)NC(=O)[C@H](CC(N)=O)NC(=O)[C@@H](N)Cc1ccc(O)cc1)C(=O)N[C@@H](CCCNC(=N)N)C(=O)N[C@@H](Cc1ccccc1)C(N)=O` [KP10, Kisspeptin-10], in data set [2], the EC50 is 10 to 14 nM and 10 nM; the “Fold change compared to metastin” value is 1.
In the case of “(C2-20K)2-biphalin [Di-C2-PEG2-FMOC-NHS-20K-biphalin]”, the inhibitory constant (Ki) came out at 10.1 nM with human μ opioid receptor (setting [6]) and 21.7 nM with human μ opioid receptor (setting [7]).
In the case of `CC(C)C[C@H](NC(=O)CNC(=O)[C@H](Cc1ccccc1)NC(=O)[C@H](CO)NC(=O)[C@H](CC(N)=O)NC(=O)[C@H](Cc1c[nH]c2ccccc12)NC(=O)[C@H](CC(N)=O)NC(=O)[C@H](Cc1ccc(O)cc1)NC(=O)[C@H](CC(N)=O)NC(=O)[C@@H]1CCCN1C(=O)[C@@H](N)CC(C)C)C(=O)N[C@@H](CCCNC(=N)N)C(=O)N[C@@H](Cc1ccccc1)C(N)=O` [KP13, Kisspeptin-13], in data set [2], the concentration giving a half-maximal response (EC50) was found to be 11 nM and the “Fold change compared to metastin” value is on record as 1.
Regarding dextran-butyrALD-40K-insulin [Dex-Ins], the “Blood glucose level, Mean” value in the data set on db/db diabetic mice (Dex-Ins 250 ug/mouse i.p., time 0 hr, N = 4) turned out to be 495 mg/dL; in the data set with db/db diabetic mice (Dex-Ins 250 ug/mouse i.p., time 1 hr, N = 4) it was 263 mg/dL; in the data set on db/db diabetic mice (Dex-Ins 250 ug/mouse i.p., time 2 hr, N = 4), 192 mg/dL; with db/db diabetic mice (Dex-Ins 250 ug/mouse i.p., time 4 hr, N = 4), 462 mg/dL; in the data set on db/db diabetic mice (Dex-Ins 250 ug/mouse i.p., time 8 hr, N = 4), 494 mg/dL; in the data set on db/db diabetic mice (Dex-Ins 250 ug/mouse i.p., time 24 hr, N = 4), 517 mg/dL. The “decrease of db/db mice glucose levels” value with db/db diabetic mice (at 1 hr and 2 hr after administration, 250 ug/mouse i.p.) is 40-60%.
On to “ALD40K-PG-1 (RGGRLCYCRRRFCVCVGR-NH2; cysteine pairing not given here; also: mPEG2-butyraldehyde 40K conjugate; UniProt P32194 131-148, looked up) [mPEG2-40K-PG-1, non-releasable conjugate of protegrin-1 with mPEG2-butaraldehyde-40K]”, for which, in data set [1] (setting [4]), the “CL” value stood at 0.548 ± 0.207 mL/min/kg, the “T1/2” value came to 648 ± 180 min and the “Vss” value turned out to be 0.32 ± 0.131 L/kg.
`CC(C)C[C@H](NC(=O)[C@H](CCCNC(=N)N)NC(=O)CNC(=O)CNC(=O)[C@@H](N)CCCNC(=N)N)C(=O)N[C@H]1CSSC[C@@H](C(=O)N[C@H](C(=O)NCC(=O)N[C@@H](CCCNC(=N)N)C(N)=O)C(C)C)NC(=O)[C@H](C(C)C)NC(=O)[C@@H]2CSSC[C@H](NC(=O)[C@H](Cc3ccc(O)cc3)NC1=O)C(=O)N[C@@H](CCCNC(=N)N)C(=O)N[C@@H](CCCNC(=N)N)C(=O)N[C@@H](CCCNC(=N)N)C(=O)N[C@@H](Cc1ccccc1)C(=O)N2` [Protegrin-1, reference compound]: in data set [1] (setting [8]), the AUC(0-inf) stood at 1160 ± 351 ng·h/mL, the Cmax worked out at 2050 ± 601 ng/mL, the mean residence time (MRT last) came to 31.2 ± 3 min and the half-life was 21 min. Also, the time to peak (Tmax) in data set [1] (rat, in vivo, protegrin-1 in plasma (released or native), 1.6 mg/kg equivalent protein mass IV, read-out: Tmax) was 1.8 min. In addition, the clearance in data set [1] (rat, in vivo, test compound in plasma (non-releasable conjugates, native PG-1), 1.6 mg/kg equivalent protein mass IV, Mean ± SD) is 24.5 mL/min/kg. Moreover, the Vd in data set [1] (rat, in vivo, test compound in plasma (non-releasable conjugates, native PG-1), 1.6 mg/kg equivalent protein mass IV, Mean ± SD, read-out: Vss) came out at 0.848 ± 0.36 L/kg.
“GTSLSPPPESSGSPQQPGLSAPHSRQIPAPQGAVLVQREKDLPNYNWNSFGLRF-NH2 [KP54, Kisspeptin-54]”: in data set [2], the concentration for a half-maximal effect (EC50) was 190 nM and the “Fold change compared to metastin” value amounted to 16.
